# Source: EPA's ToxRefDB 2
# How the values were obtained:
# [1] = tested on: mouse; conditions: Subchronic oral toxicity in rodents, b6c3f1, Feed, dose end: 7 week, group: systemic, systemic / in life observation / body weight / body weight
# [2] = tested on: rat; conditions: Combined chronic toxicity/carcinogenicity, fischer, Oral, Feed, dose end: 103 week, group: systemic
# [3] = tested on: mouse; conditions: Carcinogenicity; b6c3f1; Oral; Feed; dose end: 101 week; group: systemic; systemic / in life observation / body weight / body weight + systemic / pathology microscopic / liver / hyperplasia + systemic / pathology …
# [4] = tested on: rat; conditions: Subchronic oral toxicity in rodents, fischer, Feed, dose end: 7 week, group: systemic
# [5] = tested on: rat; conditions: Carcinogenicity; fischer; Oral; Feed; dose end: 78 week; group: systemic; systemic / in life observation / body weight / body weight
# [6] = tested on: mouse; conditions: Carcinogenicity; b6c3f1; Oral; Feed; dose end: 78 week; group: systemic; systemic / in life observation / body weight / body weight
# [7] = tested on: mouse; conditions: Prenatal developmental toxicity study; cd1; Oral; Gavage/Intubation; dose end: 14 GD; group: maternal; systemic / in life observation / body weight / body weight gain + systemic / in life observation / mortality / mortality
# [8] = tested on: mouse; conditions: Prenatal developmental toxicity study, cd1, Oral, Gavage/Intubation, dose end: 15 GD
# [9] = tested on: mouse; conditions: Multigenerational reproductive toxicity study, cd1, Oral, Feed, dose end: 2 generation
# [10] = tested on: dog; conditions: Chronic toxicity; beagle; Oral; [Not Specified]; dose end: 12 month; group: systemic; systemic / in life observation / body weight / body weight + systemic / in life observation / body weight / body weight gain + systemic / …
# [11] = tested on: dog; conditions: Subchronic oral toxicity in nonrodent, beagle, Feed, dose end: 90 day, group: systemic, systemic / pathology microscopic / kidney / vacuolization
# [12] = tested on: rat; conditions: Carcinogenicity; wistar; Oral; [Not Specified]; dose end: 24 month; group: systemic; systemic / in life observation / mortality / mortality
# [13] = tested on: mouse; conditions: Carcinogenicity, b6c3f1, Oral, Feed, dose end: 24 month, group: systemic
# [14] = tested on: rat; conditions: Chronic toxicity, wistar, Oral, Feed, dose end: 108 week, group: systemic
# [15] = systemic / in life observation / body weight / body weight
# [16] = systemic / in life observation / body weight / body weight + systemic / pathology microscopic / lung / mixed tumor nos + systemic / …
# [17] = group: developmental, developmental / developmental malformation / bone / exencephaly + developmental / developmental malformation / trunk / omphalocele + …
# [18] = group: maternal, reproductive / reproductive performance / resorptions / resorptions + systemic / in life observation / body weight / dam weight
# [19] = group: maternal, reproductive / reproductive performance / resorptions / resorptions + systemic / in life observation / body weight / dam weight + …
# [20] = group: offspring, systemic / in life observation / body weight / offspring (pup) weight + developmental / offspring survival late / lactation index / …
# [21] = group: parental, systemic / in life observation / body weight / body weight + systemic / in life observation / body weight / body weight gain + systemic / in…
# [22] = group: reproductive, reproductive / reproductive performance / fertility / fertility
# [23] = group: reproductive, reproductive / reproductive performance / fertility / fertility + reproductive / offspring survival early / litter size / litter size
# [24] = systemic / in life observation / body weight / body weight + systemic / in life observation / body weight / body weight gain + systemic / …
# [25] = systemic / in life observation / body weight / body weight + systemic / clinical chemistry / calcium / calcium + systemic / clinical …
smiles,measurement,setting,value
"Cc1ccc(N)cc1N [2,4-Diaminotoluene]",LEL,[1],30 mg/kg/day
same,LOAEL,[1],45 mg/kg/day
same,NEL,[1],15 mg/kg/day
same,NOAEL,[1],30 mg/kg/day
same,LOAEL,[2]; [15],3.95 mg/kg/day
same,NOAEL,[2]; [15],< 3.95 mg/kg/day
same,LEL,[2]; [16],3.95 mg/kg/day
same,NEL,[2]; [16],< 3.95 mg/kg/day
same,LEL,[3],15 mg/kg/day
same,LOAEL,[3],15 mg/kg/day
same,NEL,[3],< 15 mg/kg/day
same,NOAEL,[3],< 15 mg/kg/day
same,LEL,[4]; [15],12.5 mg/kg/day
same,LOAEL,[4]; [15],25 mg/kg/day
same,NEL,[4]; [15],< 12.5 mg/kg/day
same,NOAEL,[4]; systemic / in life observation / body weight / body weight + systemic / in life observation / mortality / mortality + systemic / pathology …,12.5 mg/kg/day
Cc1ccc([N+](=O)[O-])cc1N [2-Methyl-5-nitroaniline],LEL,[5],2.5 mg/kg/day
same,LOAEL,[5],2.5 mg/kg/day
same,NEL,[5],< 2.5 mg/kg/day
same,NOAEL,[5],< 2.5 mg/kg/day
same,LEL,[6],180 mg/kg/day
same,LOAEL,[6],180 mg/kg/day
same,NEL,[6],< 180 mg/kg/day
same,NOAEL,[6],< 180 mg/kg/day
O=[N+]([O-])c1ccc(O)cc1 [4-Nitrophenol],LEL,[7],400 mg/kg/day
same,LOAEL,[7],> 400 mg/kg/day
same,NEL,[7],< 400 mg/kg/day
same,NOAEL,[7],≥ 400 mg/kg/day
O=[As](O)(O)O [Arsenic acid],LEL,[8]; [17],64 mg/kg/day
same,LOAEL,[8]; [17],64 mg/kg/day
same,NEL,[8]; [17],32 mg/kg/day
same,NOAEL,[8]; [17],32 mg/kg/day
same,LEL,[8]; [18],32 mg/kg/day
same,LOAEL,[8]; [18],32 mg/kg/day
same,NEL,[8]; [19],10 mg/kg/day
same,NOAEL,[8]; [19],10 mg/kg/day
same,LOAEL,"[9]; group: offspring, systemic / in life observation / body weight / offspring (pup) weight",25 mg/kg/day
same,LEL,[9]; [20],25 mg/kg/day
same,NEL,[9]; [20],5 mg/kg/day
same,NOAEL,[9]; [20],5 mg/kg/day
same,LEL,[9]; [21],5 mg/kg/day
same,LOAEL,[9]; [21],5 mg/kg/day
same,NEL,[9]; [21],1 mg/kg/day
same,NOAEL,[9]; [21],1 mg/kg/day
same,NEL,[9]; [22],5 mg/kg/day
same,NOAEL,[9]; [22],5 mg/kg/day
same,LEL,[9]; [23],25 mg/kg/day
same,LOAEL,[9]; [23],25 mg/kg/day
Nc1cnn(-c2ccccc2)c(=O)c1Cl [Chloridazon],LEL,[10],186 mg/kg/day
same,LOAEL,[10],186 mg/kg/day
same,NEL,[10],< 186 mg/kg/day
same,NOAEL,[10],< 186 mg/kg/day
same,LEL,[11],133 mg/kg/day
same,LOAEL,[11],133 mg/kg/day
same,NEL,[11],< 133 mg/kg/day
same,NOAEL,[11],< 133 mg/kg/day
same,LEL,[12],150 mg/kg/day
same,LOAEL,[12],> 200 mg/kg/day
same,NEL,[12],< 150 mg/kg/day
same,NOAEL,[12],≥ 200 mg/kg/day
same,LOAEL,[13]; systemic / in life observation / body weight / body weight + systemic / in life observation / body weight / body weight gain,762 mg/kg/day
same,NEL,[13]; [24],28 mg/kg/day
same,NOAEL,[13]; [24],146 mg/kg/day
same,LEL,[13]; systemic / pathology microscopic / lung / adenoma,146 mg/kg/day
same,LOAEL,[14]; [15],60 mg/kg/day
same,LEL,[14]; systemic / in life observation / body weight / body weight + systemic / clinical chemistry / calcium / calcium,60 mg/kg/day
same,NEL,[14]; [25],18 mg/kg/day
same,NOAEL,[14]; [25],18 mg/kg/day
